Data on 25 molecules can be found in patent US20020115640A1, “Farnesyltransferase inhibitors” (priority 2000, published 2002).

Where only a bound is given, the exact number is not on record here.

T1 sequence (Q02293 whole entry, one chain of several): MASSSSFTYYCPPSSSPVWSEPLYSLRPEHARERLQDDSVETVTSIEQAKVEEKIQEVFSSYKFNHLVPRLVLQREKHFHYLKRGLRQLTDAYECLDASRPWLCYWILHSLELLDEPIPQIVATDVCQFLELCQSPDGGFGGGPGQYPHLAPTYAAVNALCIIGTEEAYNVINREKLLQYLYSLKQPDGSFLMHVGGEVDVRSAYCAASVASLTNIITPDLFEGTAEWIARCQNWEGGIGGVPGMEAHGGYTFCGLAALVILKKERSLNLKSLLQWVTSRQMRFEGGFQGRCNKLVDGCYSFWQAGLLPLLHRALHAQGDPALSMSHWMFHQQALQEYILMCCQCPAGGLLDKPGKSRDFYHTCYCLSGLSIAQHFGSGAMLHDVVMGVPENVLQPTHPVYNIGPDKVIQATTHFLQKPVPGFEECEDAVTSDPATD

One assay concerns the target T1, farnesyltransferase (Rattus norvegicus, UniProt Q02293+Q04631).
T1 construct: The enzyme can be purified according to Cell, 62: 81-88 (1990), utilizing steps one, two, and three; from tissue; host or cells: rat brain
Put plainly: Inhibition of farnesyltransferase (3H-farnesyldiphosphate / H-Ras filter assay). Format: biochemical. The note with it: test compound at 10^−7 M; 3H-farnesyldiphosphate 0.6 μM, H-Ras 5.0 μM, 37° C., 30 minutes. From the text:
The ability of the compounds of the present invention to inhibit farnesyltransferase can be measured according to the method described in J. Biol. Chem., 266: 14603 (1991) or J. Biol. Chem., 270:660-664 (1995). Procedures for determination of the inhibition of farnesylation of the oncogene protein Ras are described in J. Biol. Chem., 266:15575-15578 (1991) and U.S. Pat. No. 5,245,061. Inhibition of rat brain farnesyltransferase can also be measured in vitro using an Amersham Life Science commercial scintillation proximity assay kit and substituting a biotin-K Ras B fragment (0.1 μM final concentration) for the biotin-lamin substrate provided by Amersham. The enzyme can be purified according to Cell, 62: 81-88 (1990), utilizing steps one, two, and three. […] The percent inhibition of the farnesylation caused by the compounds of the present invention (at 10^−6 M) compared to an uninhibited control sample can be evaluated in the same Amersham test system.
The mixture was brought to 37° C., treated with enzyme, incubated for 30 minutes, treated with 1 M HCl/ethanol (1 mL) to stop the reaction, stirred for 15 minutes at room temperature, diluted with ethanol (2 mL), filtered through a 2.5 cm glass microfiber filter (Whatman) with ethanol rinses (4×2 mL). The glass transferred to a scintillation vial and treated with scintillation fluid (5 mL). The radioisotope retained on the glass fiber filter was counted and reflected the activity of the enzyme.
As to “4-(((5-chloro-4′-(trifluoromethyl)(1,1′-biphenyl)-2-yl)methoxy)(1-methyl-1H-imidazol-5-yl)methyl)benzonitrile [Example 26]”, the “% Inhibition at 10^−7 M” value worked out at 98%.

In the case of `Cn1cncc1C(OCc1ccc(Cl)cc1I)c1ccc(C#N)cc1` (stereo not shown) [Example 1, 4-(((4-chloro-2-iodobenzyl)oxy)(1-methyl-1H-imidazol-5-yl)methyl)benzonitrile], the inhibition at 0.1 µM came to 73%.

As to `Cn1cncc1C(OCc1ccc(Cl)cc1-c1ccccc1Cl)c1ccc(C#N)cc1` (stereo not shown) [Example 3, 4-(((2′,5-dichloro(1,1′-biphenyl)-2-yl)methoxy)(1-methyl-1H-imidazol-5-yl)methyl)benzonitrile], the inhibition at 0.1 µM is 90%.

Regarding `Cc1ccccc1-c1cc(Cl)ccc1COC(c1ccc(C#N)cc1)c1cncn1C` (stereo not shown) [Example 4, 4-(((5-chloro-2′-methyl(1,1′-biphenyl)-2-yl)methoxy)(1-methyl-1H-imidazol-5-yl)methyl)benzonitrile], the inhibition at 0.1 µM was determined as 89%.

As for `COc1ccccc1-c1cc(Cl)ccc1COC(c1ccc(C#N)cc1)c1cncn1C` (stereo not shown) [Example 5, 4-(((5-chloro-2′-methoxy(1,1′-biphenyl)-2-yl)methoxy)(1-methyl-1H-imidazol-5-yl)methyl)benzonitrile], the inhibition at 0.1 µM is 79%.

`Cn1cncc1C(OCc1ccc(Cl)cc1-c1cccc(Cl)c1)c1ccc(C#N)cc1` (stereo not shown) [Example 6, 4-(((3′,5-dichloro(1,1′-biphenyl)-2-yl)methoxy)(1-methyl-1H-imidazol-5-yl)methyl)benzonitrile] gave an inhibition at 0.1 µM of more than 91%.

The molecule `Cc1cccc(-c2cc(Cl)ccc2COC(c2ccc(C#N)cc2)c2cncn2C)c1` (stereo not shown) [Example 7, 4-(((5-chloro-3′-methyl(1,1′-biphenyl)-2-yl)methoxy)(1-methyl-1H-imidazol-5-yl)methyl)benzonitrile] gave an inhibition at 0.1 µM of more than 85%.

`Cn1cncc1C(OCc1ccc(Cl)cc1-c1cccc(C(F)(F)F)c1)c1ccc(C#N)cc1` (stereo not shown) [Example 8, 4-(((5-chloro-3′-(trifluoromethyl)(1,1′-biphenyl)-2-yl)methoxy)(1-methyl-1H-imidazol-5-yl)methyl)benzonitrile]: the inhibition at 0.1 µM came to 96%.

As for `COc1cccc(-c2cc(Cl)ccc2COC(c2ccc(C#N)cc2)c2cncn2C)c1` (stereo not shown) [Example 9, 4-(((5-chloro-3′-methoxy(1,1′-biphenyl)-2-yl)methoxy)(1-methyl-1H-imidazol-5-yl)methyl)benzonitrile], the inhibition at 0.1 µM is more than 91%.

As to `Cn1cncc1C(OCc1ccc(Cl)cc1-c1cccc(F)c1)c1ccc(C#N)cc1` (stereo not shown) [Example 10, 4-(((5-chloro-3′-fluoro(1,1′-biphenyl)-2-yl)methoxy)(1-methyl-1H-imidazol-5-yl)methyl)benzonitrile], 0.1 µM produced 94% inhibition.

`Cn1cncc1C(OCc1ccc(Cl)cc1-c1ccc(Cl)cc1)c1ccc(C#N)cc1` (stereo not shown) [Example 11, 4-(((4′,5-dichloro(1,1′-biphenyl)-2-yl)methoxy)(1-methyl-1H-imidazol-5-yl)methyl)benzonitrile] had an inhibition at 0.1 µM of 92%.

Regarding `Cn1cncc1C(OCc1ccc(Cl)cc1-c1cccc2ccccc12)c1ccc(C#N)cc1` (stereo not shown) [Example 12, 4-(((4-chloro-2-(1-naphthyl)benzyl)oxy)(1-methyl-1H-imidazol-5-yl)methyl)benzonitrile], testing at 0.1 µM gave an inhibition of 92%.

Molecule `Cn1cncc1C(OCc1ccc(Cl)cc1-c1cccc(N)c1)c1ccc(C#N)cc1` (stereo not shown) [Example 13, 4-(((3′-amino-5-chloro(1,1′-biphenyl)-2-yl)methoxy)(1-methyl-1H-imidazol-5-yl)methyl)benzonitrile] returned an inhibition at 0.1 µM of 84%.

Molecule `Cn1cncc1C(OCc1ccc(Cl)cc1-c1cccc(C#N)c1)c1ccc(C#N)cc1` (stereo not shown) [Example 14, 3′-chloro-6′-(((4-cyanophenyl)(1-methyl-1H-imidazol-5-yl)methoxy)methyl)(1,1′-biphenyl)-3-carbonitrile] showed an inhibition at 0.1 µM of 96%.

As for `CC(=O)c1ccccc1-c1cc(Cl)ccc1COC(c1ccc(C#N)cc1)c1cncn1C` (stereo not shown) [Example 15, 4-(((2′-acetyl-5-chloro(1,1′-biphenyl)-2-yl)methoxy)(1-methyl-1H-imidazol-5-yl)methyl)benzonitrile], the inhibition at 0.1 µM was 82%.

The molecule `CC(=O)c1ccc(-c2cc(Cl)ccc2COC(c2ccc(C#N)cc2)c2cncn2C)cc1` (stereo not shown) [Example 16, 4-(((4′-acetyl-5-chloro(1,1′-biphenyl)-2-yl)methoxy)(1-methyl-1H-imidazol-5-yl)methyl)benzonitrile] registered an inhibition at 0.1 µM of more than 83%.

In turn, `Cc1ccc(-c2cc(Cl)ccc2COC(c2ccc(C#N)cc2)c2cncn2C)cc1C` (stereo not shown) [Example 17, 4-(((5-chloro-3′,4′-dimethyl(1,1′-biphenyl)-2-yl)methoxy)(1-methyl-1H-imidazol-5-yl)methyl)benzonitrile] gave an inhibition at 0.1 µM of more than 85%.

`Cn1cncc1C(OCc1ccc(Cl)cc1-c1ccc(C(C)(C)C)cc1)c1ccc(C#N)cc1` (stereo not shown) [Example 18, 4-(((4′-tert-butyl-5-chloro(1,1′-biphenyl)-2-yl)methoxy)(1-methyl-1H-imidazol-5-yl)methyl)benzonitrile] registered an inhibition at 0.1 µM of 97%.

`CCOc1cccc(-c2cc(Cl)ccc2COC(c2ccc(C#N)cc2)c2cncn2C)c1` (stereo not shown) [Example 19, 4-(((5-chloro-3′-ethoxy(1,1′-biphenyl)-2-yl)methoxy)(1-methyl-1H-imidazol-5-yl)methyl)benzonitrile] returned an inhibition at 0.1 µM of more than 95%.

Regarding `COc1ccc(OC)c(-c2cc(Cl)ccc2COC(c2ccc(C#N)cc2)c2cncn2C)c1` (stereo not shown) [Example 20, 4-(((5-chloro-2′,5′-dimethoxy(1,1′-biphenyl)-2-yl)methoxy)(1-methyl-1H-imidazol-5-yl)methyl)benzonitrile], 0.1 µM produced 94% inhibition.

As to `COc1ccc(-c2cc(Cl)ccc2COC(c2ccc(C#N)cc2)c2cncn2C)cc1OC` (stereo not shown) [Example 21, 4-(((5-chloro-3′,4′-dimethoxy(1,1′-biphenyl)-2-yl)methoxy)(1-methyl-1H-imidazol-5-yl)methyl)benzonitrile], the inhibition at 0.1 µM came out at 91%.

Regarding `CC(=O)Nc1cccc(-c2cc(Cl)ccc2COC(c2ccc(C#N)cc2)c2cncn2C)c1` (stereo not shown) [Example 22, N-(5′-chloro-2′-(((4-cyanophenyl)(1-methyl-1H-imidazol-5-yl)methoxy)methyl)(1,1′-biphenyl)-3-yl)acetamide], at 0.1 µM the inhibition was 64%.

In turn, `Cn1cncc1C(OCc1ccc(Cl)cc1-c1ccc2c(c1)OCO2)c1ccc(C#N)cc1` (stereo not shown) [Example 23, 4-(((2-(1,3-benzodioxol-5-yl)-4-chlorobenzyl)oxy)(1-methyl-1H-imidazol-5-yl)methyl)benzonitrile] returned an inhibition at 0.1 µM of more than 92%.

`COc1cc(-c2cc(Cl)ccc2COC(c2ccc(C#N)cc2)c2cncn2C)cc(OC)c1OC` (stereo not shown) [Example 24, 4-(((5-chloro-3′,4′,5′-trimethoxy(1,1′-biphenyl)-2-yl)methoxy)(1-methyl-1H-imidazol-5-yl)methyl)benzonitrile] came in with an inhibition at 0.1 µM of 94%.

Still in this assay, the particulars now being: test compound at 10^−9 M (stated in the cell); 3H-farnesyldiphosphate 0.6 μM, H-Ras 5.0 μM, 37° C., 30 minutes.
As to `Cn1cncc1[C@](O)(COc1ccc(C#N)cc1-c1ccc(OC(F)(F)F)cc1)c1ccc(C#N)cc1` (single isomer, unassigned) [Example 93], the “% Inhibition at 10^−9 M” value is recorded as 90 (10^−9M) %.
